Measured values: paper PMC11642044 (International Journal of Molecular Sciences, 2024)
Read-outs that look alike come from different tables or passages of the source. Where a SMILES comes first, the peptide text is derived from it.

Tests used:
[1] = system: primary astrocytes; assay: LIF secretion (ELISA), primary astrocytes; assay type: cell-based, mouse
Experimental: HEK293, U87-MG, 1321N1, SK-N-SH, and SK-N-MC cells were cultured in MEM supplemented with 10% (vol/vol) fetal bovine serum (FBS), 50 U/mL penicillin, and 50 μg/mL streptomycin. Primary astrocyte cultures were prepared from the cerebral cortexes of neonatal mice (P2). The cerebral hemispheres were isolated and transferred to ice-cold Hank’s buffer, and the meninges were carefully removed. Tissues were then minced into approximately 1 mm pieces, triturated, filtered through a 60 µm nylon screen, and collected by centrifugation at approximately 3000× g for 5 min. The cell pellets were dispersed with a pipette and resuspended in a medium containing 10% (vol/vol) FBS in low-glucose Dulbecco’s modified Eagle’s medium. After trituration, the cells were filtered through a 10 µm screen and then plated into 6-well plates at a density of 3 × 10^5 cells/mL and cultured for about 10 days. The medium was replaced twice per week. Dibutyryl cyclic adenosine monophosphate (DBcAMP; 0.15 mM, Sigma, St Louis, MO, USA) was added to induce differentiation when the cells were grown to 95% confluence. […]
Conditioned media were analyzed for the presence of multiple cytokines by using the cytokine multiplex assay kits (Merck Millipore, MA, USA) as previously described. […] The detection beads were then washed again and resuspended in 120 μL of reading buffer. […]

[2] = system: U87-MG cells; assay: Intracellular Ca2+ mobilization by Gq-coupled receptor agonists (FLIPR, Fluo-4), U87-MG; assay type: cell-based, human
Experimental: (§1) Cells were seeded in 96-well plates (clear bottom and black wall) at 2.5 × 10^4 cells per well on the day before assay. The cells (~80–100% confluence) were then washed with Hank’s balanced salt solution (HBSS) and aspirated, followed by addition of 100 μL of FLIPR labeling dye (containing Fluo-4 and probenecid in HBSS) to each well before incubation at 37 °C for 1 h. Finally, the 96-well plate containing the labeled cells was transferred to the FLIPR (Molecular Devices, San Jose, CA, USA), and 50 μL of HBSS (with or without agonists) was added to each well. The fluorescent signals that reflect the intracellular Ca^2+ transients were monitored by an excitation wavelength of 488 nm, and detection was undertaken with an emission wavelength from 510 to 570 nm for 3 min upon the drug treatments, as described previously.

[3] = system: 1321-N1 cells; assay: Intracellular Ca2+ mobilization by Gq-coupled receptor agonists (FLIPR, Fluo-4), 1321-N1; assay type: cell-based, human
Experimental: as §1

[4] = system: primary astrocytes; assay: Intracellular Ca2+ mobilization by Gq-coupled receptor agonists (FLIPR, Fluo-4), primary cortical astrocytes; assay type: cell-based, mouse; details: 10 μM agonist, n = 4
Experimental: HEK293, U87-MG, 1321N1, SK-N-SH, and SK-N-MC cells were cultured in MEM supplemented with 10% (vol/vol) fetal bovine serum (FBS), 50 U/mL penicillin, and 50 μg/mL streptomycin. Primary astrocyte cultures were prepared from the cerebral cortexes of neonatal mice (P2). The cerebral hemispheres were isolated and transferred to ice-cold Hank’s buffer, and the meninges were carefully removed. Tissues were then minced into approximately 1 mm pieces, triturated, filtered through a 60 µm nylon screen, and collected by centrifugation at approximately 3000× g for 5 min. The cell pellets were dispersed with a pipette and resuspended in a medium containing 10% (vol/vol) FBS in low-glucose Dulbecco’s modified Eagle’s medium. After trituration, the cells were filtered through a 10 µm screen and then plated into 6-well plates at a density of 3 × 10^5 cells/mL and cultured for about 10 days. The medium was replaced twice per week. Dibutyryl cyclic adenosine monophosphate (DBcAMP; 0.15 mM, Sigma, St Louis, MO, USA) was added to induce differentiation when the cells were grown to 95% confluence. Primary mouse cortical neuronal cultures were obtained from E16 ICR mouse embryos. Briefly, cerebral cortices were removed from mouse embryos and mechanically dissociated in PBS with glucose (18 mM). Neurons were then seeded onto poly-L-lysine (1 mg/mL)-coated 96-well plates at 5 × 10^4 cells/well in a B27 Plus Neuronal culture system (Thermo Fisher Scientific), supplemented with 2 mM glutamine, 5 μM mercaptoethanol, 100 U/mL penicillin and 100 μg/mL streptomycin. The cultured neurons were maintained in a humidified incubator at 37 °C with 5% CO2 for 7 days prior to use.
as §1

[5] = system: U87-MG cells; assay: LIF production into conditioned media (ELISA), U87-MG; assay type: cell-based, human
[6] = system: STAT3 in SK-N-MC cells; assay: STAT3 Tyr705 phosphorylation in SK-N-MC by conditioned media from agonist-treated U87-MG; assay type: cell-based, human
Experimental: (§2) These conditioned media were either immediately applied to SK-N-SH/SK-N-MC cells (80–100% confluence) in 6-well plates for 15 min, or subjected to heat treatment on a 96 °C heat block for 5 min, and then cooled to 37 °C before they were applied to the SK-N-SH/SK-N-MC cells for 15 min. […] For the SK-N-MC-derived conditioned media, SK-N-MC cells (80–100% confluence) in a 10 cm culture dish were serum-starved in 10 mL of MEM (without FBS), with 1 mL of the resulting conditioned medium being collected at indicated time points (15 min, 1 h, 3 h, 6 h). Simultaneously, U87-MG cells (80–100% confluence) in 12-well plates were serum-starved in MEM for 6 h, followed by pretreatment of […] (5 μM, 15 min), and then challenged with the SK-N-MC-derived conditioned media (mentioned above) for 10 min before cell lysis. […]
(§3) SDS-PAGE and Western blotting were performed as described in our previous studies. […] The amount of protein in each sample was determined by detergent compatible (DC) protein assay according to the supplier’s instruction (Bio-Rad, Hercules, CA, USA). […] Resolved proteins were detected by specific primary antibodies and horseradish peroxidase-conjugated secondary antisera. The level of β-actin was determined as an internal control.

[7] = system: ERK in SK-N-MC cells; assay type: cell-based, human
Experimental: as §2, §3

[8] = system: ERK in SK-N-SH cells; assay type: cell-based, human
Experimental: as §2, §3

[9] = system: melatonin MT1 receptor with Gα16; assay type: cell-based, human
Experimental: Supplementary Methods (for Supplementary Figures) […]
(Merck Millipore, MA, USA). HEK293 cells (80-100% confluence in 6-well plates) stably expressing MT1R alone or together with Gα16 as described previously [Ref. 21] were treated with 1 μM of melatonin (Tocris Bioscience, Minneapolis, MN) in 1 mL of MEM per well without FBS for 24 h. The resulting conditioned media were collected in 1.5 mL microcentrifuge tubes, with the presence of secretory LIF and IL-6 quantified by ELISA assays (Abcam, Cambridge, UK) according to the manufacturer’s […]

[10] = system: STAT3 in SK-N-MC cells; assay: STAT3 phosphorylation by direct application of cytokine, SK-N-MC; assay type: cell-based, human; details: LIF 0–100 ng/mL, 15 min
Experimental: (§4) To determine if the experimental cells were readily responsive to LIF and IL-6, SK-N-MC cells, mouse primary neurons and primary astrocytes (80–100% confluence in 12-well plates) were serum-starved for 6 h, followed by treatment of indicated concentrations (0–100 ng/mL) of LIF and IL-6 for 15 min. The subsequent cell lysates were subjected to SDS-PAGE and Western blot with specific antibodies to detect stimulatory phosphorylated forms and the total amounts of STAT3.
as §3, with “control. […] Chemiluminescence signals were then detected by ChemiDoc imaging systems (Bio-Rad, Hercules, CA, USA) with the subsequent band densities quantified by ImageJ (https://imagej.net/ij/) analysis software (National Institutes of Health, MD, USA). […]” for “control.”

[11] = system: STAT3 in primary mouse cortical neurons; assay: STAT3 phosphorylation by direct application of cytokine, primary cortical neurons; assay type: cell-based; details: 0–100 ng/mL, 15 min
Experimental: as §4
as §3, with “control. […] Chemiluminescence signals were then detected by ChemiDoc imaging systems (Bio-Rad, Hercules, CA, USA) with the subsequent band densities quantified by ImageJ (https://imagej.net/ij/) analysis software (National Institutes of Health, MD, USA). […]” for “control.”

[12] = system: STAT3 in primary mouse astrocytes; assay: STAT3 phosphorylation by direct application of cytokine, primary astrocytes; assay type: cell-based; details: 0–100 ng/mL, 15 min
Experimental: as §4
SDS-PAGE and Western blotting were performed as described in our previous studies. In brief, cells in 6-well plates (5 × 10^5 cells/well) were lysed in 500 μL of ice-cold lysis buffer (50 mM Tris-HCl at pH 7.5 containing 100 mM NaCl, 5 mM EDTA, 40 mM NaP2O7, 1% Triton X-100, 1 mM dithiothreitol, 200 μM Na3VO4, 100 μM phenylmethylsulfonyl fluoride, 2 μg/mL leupeptin, 4 μg/mL aprotinin, and 0.7 μg/mL pepstatin) and then gently shaken for 30 min. The amount of protein in each sample was determined by detergent compatible (DC) protein assay according to the supplier’s instruction (Bio-Rad, Hercules, CA, USA). Clarified lysates (30 μg protein per sample) were resolved on 12% SDS-polyacrylamide gels and then transferred to nitrocellulose membranes (Westborough, MA, USA). Resolved proteins were detected by specific primary antibodies and horseradish peroxidase-conjugated secondary antisera. The level of β-actin was determined as an internal control. Immunoblots were visualized by chemiluminescence with the WesternBright ECL reagents from Advansta (San Jose, CA, USA). Chemiluminescence signals were then detected by ChemiDoc imaging systems (Bio-Rad, Hercules, CA, USA) with the subsequent band densities quantified by ImageJ (https://imagej.net/ij/) analysis software (National Institutes of Health, MD, USA). All primary antibodies which specifically recognize B1R, B2R, ERK, p-ERK, p38, p-p38, JNK, p-JNK, STAT3, p-STAT3, and β-actin were applied at 1:1000 dilution for Western blotting.

[13] = system: STAT3 in U87-MG cells; assay: STAT3 phosphorylation by direct application of cytokine, U87-MG; assay type: cell-based, human

`N=C(N)NCCC[C@H](NC(=O)[C@H](Cc1ccccc1)NC(=O)[C@@H]1CCCN1C(=O)[C@H](CO)NC(=O)[C@H](Cc1ccccc1)NC(=O)CNC(=O)[C@@H]1CCCN1C(=O)[C@@H]1CCCN1C(=O)[C@@H](N)CCCNC(=N)N)C(=O)O` [bradykinin] (H-RPPGFSPFR-OH) gave an EC50 [1] of 0.023 µM.
With `C[N+](C)(C)CCOC(N)=O` [carbachol] the “intracellular Ca2+ response” value ([2]; 10 μM agonist, U87-MG, FLIPR, Fluo-4, 3 min, n = 3) was “lack of a carbachol-stimulated Ca^2+ response”, the “Ca2+ response, fold stimulation” value ([3]; 10 μM agonist, 1321-N1, FLIPR) was “over 100 fold” and the “intracellular Ca2+ response” value ([3]; 10 μM agonist, 1321-N1, FLIPR, Fluo-4, 3 min, n = 3) was “elicited Ca^2+ responses in 1321-N1 cells”. For the same compound, the “intracellular Ca2+ mobilization” value [4] was “significantly stimulated Ca^2+ mobilization” and the LIF production ([5]; 10 μM agonist, 24 h, U87-MG, ELISA, n = 3) was “failed to induce the production of LIF”.
With `NCCc1c[nH]cn1` [histamine] the “Ca2+ response, fold stimulation” value [2] was “over 100 fold”, the “intracellular Ca2+ response” value [2] was “significantly stimulated intracellular Ca^2+ responses” and the “Ca2+ response, fold stimulation” value [3] was “over 100 fold”. The “intracellular Ca2+ response” value [3] was “significantly stimulated intracellular Ca^2+ responses”, the LIF production [5] was “significantly elevated the levels of LIF” and the “STAT3 Tyr705 phosphorylation by conditioned media” value [6] was “stimulated STAT3 Tyr^705 phosphorylation”. For the same compound, the “ERK phosphorylation by conditioned media” value [7] was “little or no change in ERK phosphorylation” and the “ERK phosphorylation by conditioned media” value [8] was “little or no change in ERK phosphorylation”.
With `COc1ccc2[nH]cc(CCNC(C)=O)c2c1` [melatonin] the IL-6 release [9] was “induced the release of both LIF and IL-6” and the LIF release [9] was “induced the release of both LIF and IL-6”.
In the case of leukemia inhibitory factor [LIF], the STAT3 phosphorylation [10] is reported as “dose-dependent manner”, the STAT3 phosphorylation [11] is reported as “dose-dependently stimulated STAT3 phosphorylation” and the “STAT3 response compared with IL-6” value [11] is reported as “apparently stronger than that induced by IL-6”. For the same compound, the “potency in STAT3 phosphorylation compared with IL-6” value [12] was “even more potent than IL-6”, the STAT3 phosphorylation ([12]; n = 3) was “readily stimulated by LIF in a dose-dependent manner” and the STAT3 phosphorylation [13] was “readily stimulated by LIF in a dose-dependent manner”.
